Data: patent publication US11992011B2, “Compounds for controlling plant pathogens” (VIB VZW, priority 2017, dated 2024)

Experiments:
[1] = tested on: Botrytis cinerea (isolate R16); assay: Botrytis cinerea infection of detached tomato leaves (Example 13); format: in vivo; set-up: dose or concentration left out as unconfirmed; details: spray containing PA, four days after inoculation, vs control
Procedure: Tomato plants (cv. Moneymaker) were grown for four weeks in potting soil as described in the plant material section. Six hours before inoculation, the third leaf of each tomato plant was detached. The petioles were wrapped in wet tissue paper and the leaves were placed on a petri dish. […] Finally, the tray was covered with a plastic autoclave bag to keep humidity at 100%.
Botrytis cinerea (line R16) spores were obtained as described in the fungal culture section, centrifuged for five minutes at 3000 rpm and resuspended to a concentration of 1.0×10^6 spores per ml with a solution of 0.01 M glucose and 0.0067 M KH2PO4. The spore suspension was left at room temperature for one hour to trigger germination. […]
Six drops of spore suspension of 15 μl each were spotted on each detached tomato leaf, after which the tray was covered again. The tray was placed at room temperature away from direct sunlight and left for four days. At this point, chlorophyll fluorescence measurements were taken to assess the success of infection. Two parameters were assessed: whether the B. cinerea lesion had spread beyond the droplet area (successful invasion) and the total surface area of successfully established lesions (post-invasion growth).

Heterodera schachtii = Heterodera schachtii infection in sugar beet (Example 9); format: in vivo; details: 10 μM PA
Procedure: Sugar beet seeds (cultivar Jolgeh) were germinated for five days at 25° C. on sterile potting soil saturated with distilled water. Seedlings were transferred to SAP tubes, which were placed in a growth chamber at 24° C. (16h per day of fluorescent lighting). The first two days after transfer, the tubes were covered with a polyethylene film (Saran Film, Dow Chemicals, Midland, USA) to prevent excessive evaporation. Seedlings were watered three times per week with 8 ml of Hoagland solution.
Cysts were collected from sugar beets (cv. Jolgeh) kept in a growing chamber at 21° C. through a flotation protocol. Plant roots and their surrounding soil were placed in a water bath at room temperature and gently agitated, followed by decanting and sieving to allow collection of cysts. Cysts were are-dried for two days and stored until use.
Hatching of cysts was induced by exposing them to a zinc chloride solution (3 mM in distilled water) at 25° C. for three days. Five 100 μl samples were taken from this suspension. The number of J2 juveniles in each sample was counted and the results were averaged. Sugar beet plants were inoculated fourteen days after transfer to SAP with the required volume of suspension to inoculate each plant with an average of 250 J2 nematodes.
Infection experiments with H. schachtii were performed by inoculating host plants 14 days after transfer to SAP by introducing 250 J2 juveniles to their root system using a micro pipette. Plants were harvested 31 days after inoculation. At this point, the plants were phenotyped by measuring the root and shoot length with a ruler. Cysts were collected through a sucrose flotation protocol and then counted and microscopically assessed for maturity.
To test whether the compounds of the invention are effective against other nematodes and in other plant species, PA was tested on the interaction between the dicot crop sugar beet (Beta vulgaris) and the cyst nematode Heterodera schachtii. At this point, it was not known whether dicots would tolerate PA as well as monocots and so a much lower dose (10 μM) was used instead.

OsAOS2 = assay: qRT-PCR in rice roots, OsAOS2 (Example 20); format: in vivo, Oryza sativa; details: rice cv. Bomba root tissue; same samples as Example 19
Procedure: After quality control, qPCR was carried out.
To test whether other defense hormones might be involved, genes responsive to jasmonic acid (the biosynthesis gene OsAOS2) and auxin (the auxin conjugating enzyme OsGH3.1) were investigated. Moreover, the callose-degrading enzyme OsGNS5, downregulation of which is associated with basal defense, was also investigated. The qRT-PCR analysis was performed on the same samples used in the previous Example.

[2] = infected sugar beet, mean ± SD, n = 8

Question: What does the source list for `O=C(O)c1ccc2c(c1)OCO2` [PA, Piperonylic acid]?
Answer: change of mean size of successfully established/spreading lesions [1]: −62%; change of number of inoculation spots in which fungal lesions developed [1]: −50%; Number of mature cysts (Heterodera schachtii; [2]): 7.5 ± 4.4; Proportion of mature cysts (Heterodera schachtii; [2]): 0.48 ± 0.25; Total number of cysts (Heterodera schachtii; [2]): 15.3 ± 0.7; reduction of the number of Heterodera schachtii nematodes (Heterodera schachtii; sugar beet, statistically insignificant): 20%; Fold change vs. control, OsAOS2 expression (OsAOS2): 0.71
